Assay type in all cases: cell-based
In assay [1] the test system is HIV (LAV-1 strain). As for the experimental part:
6.42 micromoles of dioleoylphosphatidylcholine, 3.85 micromoles of cholesterol, 1.28 micromoles of dioleoylphosphatidylglycerol and 1.28 micromoles of dimyristoylphosphatidyl-azidothymidine were mixed in a sterile 2.0 ml glass vial and the solvent was removed in vacuo in a rotary evaporator. In some experiments, dimyristoylphosphatidylazidothymidine was replaced with either dimyristoylphosphatidyldideoxythymidine, dimyristoylphosphatidyldideoxycytidine or azidothymidine diphosphate dimyristoylglycerol; control liposomes were prepared by omitting the antiviral liponucleotide. The dried film was placed under high vacuum overnight at room temperature to remove traces of solvent. The lipid film was hydrated at 30° C. with 0.3 ml of sterile 10 mM sodium acetate buffer (pH 5.0) containing isotonic dextrose and the ampule was sealed. The mixture was vortexed intermittently for 10 minutes followed by sonication using a Heat Systems Ultrasonics sonicator with a cup horn generator (431B) at output control setting #9 for 90 to 120 minutes at which time the sample is clarified. This sonicated preparation was diluted with sterile RPMI buffer and added to the tissue culture wells at the concentration indicated.
(§1) The human T lymphoblastoid cell line, CCRG-CEM (hereafter referred to as CEM), was grown in RPMI 1640 medium containing 100 U/ml penicillin G, 100 ug/ml streptomycin, 2 mM glutamine and 10% fetal bovine serum (Hyclone Laboratories, Logan, Utah). Cells were infected with the LAV-1 strain (L. Montagnier, Paris, France) at a multiplicity of infection of one tissue culture 50% infectious dose (TCID50)/cell for 60 minutes at 37° C. in medium containing […]. CEM cells were infected in suspension at 6×10^4 cells/ml, washed three times by centrifugation and resuspension and then distributed in 96-well plates at 6×10^4 cells/well before addition of medium containing the liposomal antiretroviral liponucleotide drugs.
(§2) Antiviral activity was assayed after 3 days by the inhibition of the production of HIV p24 (gag) antigen in the cell free culture medium of the infected cells exposed to different concentrations of drug; p24 antigen was measured by ELISA (Abbott Laboratories, Chicago, Ill.) according to the manufacturer's instructions. The data are the average of two determinations and are expressed as percentage of a control incubated in the absence of drugs.

The test system of assay [2] is HIV in CEM tk- cells. The assay is described as follows: Inhibition of HIV p24 production in thymidine kinase deficient CEM tk- cells. The settings on record: Experiment H637-1b, AZT 0.2 to 100 uM. As to the method: as §1, §2
In this experiment, CEM cells were replaced with mutant cells (provided by Dr. Dennis Carson, Scripps Clinic, San Diego, Calif.) which lack the thymidine kinase enzyme (CEM tk−).

For assay [3], the system named is HIV in CEM (wild type) cells. Description: Experiment I276: antiviral protection of CEM cells by preincubation, p24 in supernates. To be noted: 3 day preincubation; 24 and 48 hours in normal media after removal of drug. As for the experimental part:
The cells were then washed twice with PBS, and fresh RPMI media added. Each group of cells was then divided into three batches. One batch was immediately infected with HIV, as noted above; after washing away unattached HIV, the sample was allowed to incubate in media alone for 3 days. Two other batches were allowed to incubate in media alone for either 24 or 48 hours to allow any intracellular antiviral agent present to become depleted. Then they were infected with HIV, the cells washed free of virus, and fresh RPMI media added. After 3 days of further incubation, the supernates of all batches were tested for the presence of p24 protein.
CEM cells were subjected to HIV infection without preincubation; drug was added following HIV infection as indicated, and the cells were incubated for 3 days.
After a further incubation for 3 days, p24 was measured.

Structures can show the parent of a compound that is named as a salt.

Consider `CCCCCCCCCCCCCC(=O)OC[C@H](COP(=O)(O)OC[C@H]1O[C@@H](n2cc(C)c(=O)[nH]c2=O)C[C@@H]1N=[N+]=[N-])OC(=O)CCCCCCCCCCCCC` [LN1, 1,2-Dimyristoylglycerophospho-5′-(3′-azido-3′-deoxy)thymidine, Monosodium Salt], for which, in assay [1] (Experiment H533-1, liposomes containing 10 mole percent liponucleotide, CEM wild type, p24 after 3 days, read-out: amount of drug required to reduce virus production by 50% (E.D. 50)), the EC50 stood at 2000 nM. Further, in assay [1] (Experiment H747-1a, concentrations ranging from 2 to 170 uM), the “effectiveness in reducing p24, phosphatidylAZT liposomes versus free AZT” value was “more effective than the free AZT”. The “effect on p24 production” value in assay [2] is on record as “capable of reducing p24 production”. For the same molecule, the “protection from HIV after removal of the drug” value in assay [3] is on record as “complete protection from HIV replication”.
On to `Cc1cn([C@H]2C[C@H](N=[N+]=[N-])[C@@H](CO)O2)c(=O)[nH]c1=O` [Example N1, 3′-azido-3′-deoxythymidine, reference compound], for which, in assay [1] (Experiment H747-1a, low concentrations below 0.1 uM), the “effectiveness in reducing p24, free AZT versus liponucleotide” value is given as “more effective than the liponucleotide”. In addition, the “effect on p24 production” value in assay [2] is “completely without effect”. In addition, the “protection from HIV after removal of the drug” value in assay [3] is reported as “failed to protect the cells from HIV infection”.

The record behind these values is US6448392B1, “Lipid derivatives of antiviral nucleosides: liposomal incorporation and method of use” (Chimerix, Inc., priority 1985, dated 2002).
